Results reported in US20200016076A1, “COMPOSITION FOR THE TREATMENT OF DUCHENNE MUSCULAR DYSTROPHY” (Summit (Oxford) Limited, priority 2016, published 2020).
≈ marks a conversion by molar mass, not a printed value.

Tests used:
[1] = Gravimetric vapour sorption analysis; type: physicochemical
Text: Form I was subjected to gravimetric vapour sorption analysis, ramping profile from 0 to 90% RH at 10% RH increments.

[2] = tested on: mouse models of DMD; conditions: with corticosteroids including prednisone, prednisolone and deflazacort; WO2009/019504; cited from earlier work
[3] = Solubility of ezutromid Form I polymorph in pharmaceutically-acceptable solvents at 20° C. (HPLC of saturated solutions); type: physicochemical; conditions: 1-propanol; 4 hours equilibration
Description: In each case, about 25 mg of drug substance was allowed to equilibrate with 250 μL of solvent over 4 hours. The resulting saturated solutions were filtered and analysed by HPLC.

Structure (SMILES): CCS(=O)(=O)c1ccc2oc(-c3ccc4ccccc4c3)nc2c1 [ezutromid, 5-(ethylsulfonyl)-2-(naphthalen-2-yl)benzo[d]oxazole]
- Hygroscopicity ([1]; based on gravimetric vapour sorption): not hygroscopic
- Moisture absorbed ([1]; up to 90% RH, 0 to 90% RH at 10% RH increments): no more than 0.25 % by weight
- Reduction of exercise-induced fatigue with corticosteroids [2]: acts in synergy with corticosteroids
- Solubility at 20° C. [3]: 0.79 mg/mL (≈ 2340 µM)
